Data on two compounds can be found in US12635683B2, “Preservation of natural and bioengineered tissues and methods of storing and transport” (LifeNet Health, priority 2021, dated 2026).

The subject of the experiment is Epiderm construct. Nature of the experiment: Construct viability after vitrification and rewarming (metabolic activity). The format is cell-based, human. Particulars: αT and QVD added together to culture medium before and after vitrification. The procedure: Tissue Culture: Human epidermal models were obtained from commercial sources and maintained according to their specifications. All constructs were incubated in appropriate media for 24 hours under physiological tissue culture conditions before initiating experiments. Fresh controls were used in each experiment and experimental treatment groups were assessed over 4-5 days post-rewarming.
Vitrification Methods: The constructs were gradually infiltrated with precooled vitrification formulations at 4° C. in six steps with 0%, 12.5%, 25%, 50%, 75% and 100% of each formulation to achieve a final cryoprotectant concentration. After rewarming, the vitrification solution was removed in seven sequential steps at 4° C. into culture medium as previously described (see Song et al., Vitreous cryopreservation maintains the function of vascular grafts, Nature Biotechnology, 8(3):296-9, Epub 2000/03/04, doi:10.1038/73737, PubMed PMID: 10700144 (2000); and Song et al., Vitreous Preservation of Rabbit Articular Cartilage, Cell Preservation Technology, 2 (1); 67-74 (2004)).
Once loaded with vitrification solution the construct can be cooled to storage temperature and rewarmed using several methods. (1) The constructs were placed in glass scintillation vials (Diam.×H, 25 mm×60 mm) containing 1.5 mL of pre-cooled vitrification solution with 0.3 mL solution inside the well insert. Then 1 mL of 2-methylbutane (isopentane, freezing point: −160° C., density: 0.62) was placed on top of the vitrification solution in the vial and 0.2 mL inside the well insert at 4° C. to prevent direct air contact. Samples were cooled rapidly (approximately 45° C./minute) to −100° C. by placing the samples in a pre-cooled bath containing isopentane in a −135° C. mechanical storage freezer. Upon achieving −100° C. the specimens were removed from the bath and stored at −135° C. in the mechanical storage freezer, which results in slow cooling (3° C./minute) to −135° C. The samples were held at −135° C. for a minimum of 24 hours. The constructs were rewarmed in two stages, first, slow warming to −100° C. (approximately 30° C./minute) at the top of the mechanical storage freezer and then rapidly warmed to either 0° C. or ±−10° C. approximately 225° C./min) in a 30% ME2SO bath at room temperature. (2) The constructs in inserts are placed within the well of a deep well plate. There is 0.6 mL vitrification solution in the well and 0.2 mL solution in the insert. […]
Resazurin Assay: Was used to measure the metabolic activity and has the advantage of being non-toxic so constructs can be assessed before and several times after treatment. […]

In the case of `Cc1c(C)c2c(c(C)c1O)CC[C@@](C)(CCC[C@H](C)CCC[C@H](C)CCCC(C)C)O2` [α-tocopherol], the “Effect of additive in culture medium on construct viability” value (“Effect of additive in culture medium” for short) is listed as “improved viability”. Where the note is “listed as αT”, the “Effect of additive in culture medium” value is “significant improvement”.

For `CC(C)[C@H](NC(=O)c1ccc2ccccc2n1)C(=O)N[C@@H](CC(=O)O)C(=O)COc1c(F)cccc1F` [Q-VD-OPH, quinoline-Val-Asp-difluorophenoxymethyl ketone], the “Effect of additive in culture medium” value is “improved viability”. Besides, the “Effect of additive in culture medium” value (listed as QVD) is given as “significant improvement”.
